# Results published in patent publication US9273038B2, “Solid forms of an ion channel modulator” (Gilead Sciences, Inc., priority 2014, dated 2016).
# Where two headings read alike, the source gives them in different places.
# Key:
# Format in all cases: physicochemical
# [1] = Dynamic vapor sorption (DVS) analysis
# Experimental: The solids with unique XRPD patterns were characterized by DSC, TGA, ^1H NMR, KF and DVS. All XRPD patterns were obtained in the experimental setting as follows: 45 kV, 40 mA, Kα1=1.5406 Å, scan range 2 to 40°, step size 0.0167°, counting time: 15.24 s. DSC and TGA analyses were performed using 10° C./min heating rate over the 20 to 350° C. temperature range.
# [2] = Stable form screen of Compound I Form IV (slurry at room temperature); conditions: for solubility at 24 h: slurry of the solid in solvent, thermodynamic from solid, read-out: Solubility after 24 h
# Experimental: Compound I Form IV (about 50 mg) was slurried in 0.5-1 mL of solvent and allowed to stir at room temperature for 2 weeks. […] Similar results were observed after 2 weeks of equilibration (Table 15).
# [3] = Thermal stability of Compound I Form IV under vacuum at 45° C. (XRPD, HPLC); conditions: for HPLC (% AN) / XRPD / HPLC (% ES): drying under vacuum at 45° C.
# Experimental: Drying study was also performed of Compound I Form IV under vacuum at 45° C. in an attempt to determine the chemical stability of this material by HPLC as well as form stability by XRPD.
# [4] = Abbreviated stable form screen of Compound I Form V (slurry at room temperature); conditions: for solubility at 3 days: slurry of the solid in solvent, organic solvent or mixture, thermodynamic from solid, solid converted to Form VI
# Experimental: Abbreviated stable form screen of Compound I Four V was performed by slurrying […] (about 100 mg) in IPA, IPAc and MTBE (1-2 mL) in an attempt to obtain anhydrous form as summarized in Table 16. The first aliquot (about 0.5 mL) was taken for XRPD analysis and solubility assessment after 3 days of equilibration at room temperature. Solids were analyzed before and after overnight drying at 45° C. […] After two weeks equilibration at room temperature no form change was observed. XRPD patterns of all samples were consistent with Compound I Form VI.
# [5] = Hydrate screen in ethanol/water and isopropanol/water: solubility and relative form stability; conditions: for Form III Solubility mg/g (1 day): from 50:50 w/w mixture of Form I & III
# Experimental: A hydrate screen starting from Form I was also conducted to evaluate whether hydrates of Compound I exist. The hydrate screen was conducted in ethanol/water (Table 6) and isopropanol/water (Table 7) mixtures, and in both cases, a new polymorph of Compound I was discovered (denoted as Form III).
# From the initial hydrate screens presented in Table 6 and Table 7 no apparent trends were observed. In this case, all slurries of Form I in EtOH/water or IPA/water mixtures remained unchanged after 2 weeks (Table 8 and Table 9). Since Form III has been observed previously under the same conditions, it was suspected that the lack of form conversion is mainly due to slow kinetics. […] Attempts to determine the relative stability between Forms I and III at lower water activities were unsuccessful since Form I either was too soluble or oiled out at water activities of 0.8 or below.
# [6] = under vacuum at 45° C., 2 and 7 days
compound,measurement,setting,value
"O=C(O)C(=O)O.O=C1c2cc(-c3ccc(OC(F)(F)F)cc3)ccc2OCCN1Cc1ncccn1 [Compound I Form XVIII, 4-(pyrimidin-2-ylmethyl)-7-(4-(trifluoromethoxy)phenyl)-3,4-dihydrobenzo[f][1,4]oxazepin-5(2H)-one oxalate]",Hygroscopicity by DVS (in words),[1],non-hygroscopic
same,Moisture uptake at 90% RH (DVS),[1],about 0.075%
"CS(=O)(=O)O.O=C1c2cc(-c3ccc(OC(F)(F)F)cc3)ccc2OCCN1Cc1ncccn1 [Compound I Form IV, 4-(pyrimidin-2-ylmethyl)-7-(4-(trifluoromethoxy)phenyl)-3,4-dihydrobenzo[f][1,4]oxazepin-5(2H)-one methanesulfonic acid]",Form stability in slurry by XRPD (in words),"[2]; 17 solvents, 24 h, similar after 2 weeks, water afforded Form III (wet), Form III + Form II after air drying",no form change in all solvents except water
same,solubility at 24 h,"[2]; aqueous with cosolvent or surfactant or cyclodextrin, EtOH/water 0.8 water activity (480 μL H2O and 520 μL EtOH), all solids dissolved",> 150000 µg/mL
same,solubility at 24 h,"[2]; organic solvent or mixture, 2-Me-THF",2300 µg/mL
same,solubility at 24 h,"[2]; organic solvent or mixture, Acetone",4160 µg/mL
same,solubility at 24 h,"[2]; organic solvent or mixture, DCM",5480 µg/mL
same,solubility at 24 h,"[2]; organic solvent or mixture, EtOAc",1260 µg/mL
same,solubility at 24 h,"[2]; organic solvent or mixture, EtOH",12200 µg/mL
same,solubility at 24 h,"[2]; organic solvent or mixture, Heptane",100 µg/mL
same,solubility at 24 h,"[2]; organic solvent or mixture, IPA",5420 µg/mL
same,solubility at 24 h,"[2]; organic solvent or mixture, IPAc",780 µg/mL
same,solubility at 24 h,"[2]; organic solvent or mixture, MEK",3140 µg/mL
same,solubility at 24 h,"[2]; organic solvent or mixture, MIBK",1420 µg/mL
same,solubility at 24 h,"[2]; organic solvent or mixture, MTBE",340 µg/mL
same,solubility at 24 h,"[2]; organic solvent or mixture, MeCN",4820 µg/mL
same,solubility at 24 h,"[2]; organic solvent or mixture, MeOH",40400 µg/mL
same,solubility at 24 h,"[2]; organic solvent or mixture, THF",7940 µg/mL
same,solubility at 24 h,"[2]; organic solvent or mixture, Toluene",360 µg/mL
same,solubility at 24 h,"[2]; water, Water, solid converted to Form III (wet)",4340 µg/mL
same,Hygroscopicity by DVS (in words),[1],slightly hygroscopic
same,Moisture uptake at 90% RH (DVS),[1],1.0 wt %
same,Moisture uptake at 90% RH (DVS),[1]; listed as Form IV,1.01 wt % at
same,Hygroscopicity by DVS (in words),[1]; listed as Form IV,Slightly
same,HPLC (% AN),[3]; 0 days,100 % AN
same,XRPD,[3]; 0 days,Form IV
same,HPLC (% ES),"[3]; 0 days, theoretical strength 81.21%",80.2 % ES
same,HPLC (% AN),[3]; 2 days,100 % AN
same,XRPD,[3]; 2 days,Form IV
same,HPLC (% ES),"[3]; 2 days, theoretical strength 81.21%",85.4 % ES
same,HPLC (% AN),[3]; 7 days,100 % AN
same,XRPD,[3]; 7 days,Form IV
same,HPLC (% ES),"[3]; 7 days, theoretical strength 81.21%",82.1 % ES
same,Form stability by XRPD during drying (in words),[3]; [6],did not show any form change
same,HPLC purity during drying,[3]; [6],100 % (AUC)
same,HPLC strength during drying,"[3]; under vacuum at 45° C., 2 and 7 days, theoretical strength 81.21%",80 to 85%
"O=C1c2cc(-c3ccc(OC(F)(F)F)cc3)ccc2OCCN1Cc1ncccn1.O=S(=O)(O)c1ccccc1 [Compound I Form VI, 4-(pyrimidin-2-ylmethyl)-7-(4-(trifluoromethoxy)phenyl)-3,4-dihydrobenzo[f][1,4]oxazepin-5(2H)-one benzene sulfonic acid]",Hygroscopicity by DVS (in words),[1],non-hygroscopic
same,Moisture uptake at 90% RH (DVS),[1],about 0.1%
same,Moisture uptake at 90% RH (DVS),[1]; listed as Form VI,0.11 wt % at
same,Hygroscopicity by DVS (in words),[1]; listed as Form VI,Non-
"CCS(=O)(=O)O.O=C1c2cc(-c3ccc(OC(F)(F)F)cc3)ccc2OCCN1Cc1ncccn1 [Compound I Form XVI, 4-(pyrimidin-2-ylmethyl)-7-(4-(trifluoromethoxy)phenyl)-3,4-dihydrobenzo[f][1,4]oxazepin-5(2H)-one esylate]",Relative humidity of deliquescence (DVS),[1],around 90 % RH
"O=C1c2cc(-c3ccc(OC(F)(F)F)cc3)ccc2OCCN1Cc1ncccn1.O=S(=O)(O)c1ccccc1 [Compound I Form V, 4-(pyrimidin-2-ylmethyl)-7-(4-(trifluoromethoxy)phenyl)-3,4-dihydrobenzo[f][1,4]oxazepin-5(2H)-one benzene sulfonic acid]",Form stability in slurry by XRPD (in words),"[4]; IPA, IPAc and MTBE, 3 days, no further change after two weeks",all solids converted to anhydrous Compound I Form VI
same,solubility at 3 days,[4]; IPA,16100 µg/mL
same,solubility at 3 days,[4]; IPAc,2200 µg/mL
same,solubility at 3 days,[4]; MTBE,460 µg/mL
"4-(pyrimidin-2-ylmethyl)-7-(4-(trifluoromethoxy)phenyl)-3,4-dihydrobenzo[f][1,4]oxazepin-5(2H)-one edisylate [Compound I Form XVII]",Hygroscopicity by DVS (in words),[1],slightly hygroscopic
same,Moisture uptake at 90% RH (DVS),[1],about 1%
"O=C1c2cc(-c3ccc(OC(F)(F)F)cc3)ccc2OCCN1Cc1ncccn1 [Compound I Form III, 4-(pyrimidin-2-ylmethyl)-7-(4-(trifluoromethoxy)phenyl)-3,4-dihydrobenzo[f][1,4]oxazepin-5(2H)-one]",Form III Solubility mg/g (1 day),"[5]; 10% EtOH/water, water activity >0.9",0.06 mg/g
same,Form III Solubility mg/g (1 day),"[5]; 10% IPA/water, water activity >0.9",0.06 mg/g
same,Form III Solubility mg/g (1 day),"[5]; 20% EtOH/water, water activity 0.8-0.9",0.10 mg/g
same,Form III Solubility mg/g (1 day),"[5]; 20% IPA/water, water activity >0.9",0.19 mg/g
same,Form III Solubility mg/g (1 day),"[5]; 25% IPA/water, water activity >0.9",0.78 mg/g
same,Form III Solubility mg/g (1 day),"[5]; 30% EtOH/water, water activity 0.8-0.9",0.49 mg/g
same,Form III Solubility mg/g (1 day),"[5]; 30% IPA/water, water activity >0.9",3.2 mg/g
same,Form III Solubility mg/g (1 day),"[5]; 35% EtOH/water, water activity 0.8-0.9",1.8 mg/g
same,Relative polymorph stability (competition slurry Form I/Form III),"[5]; water activities above 0.8, EtOH/water or IPA/water",the most stable polymorph of Compound I
